Experiment: gradient 5% acetonitrile 3 min, to 50% in 2 min, to 85% in 15 min, held 3 min, 100 µL/min
Settings: column: Zorbax Extend-C18 2.1 x 50 mm; eluents: water / acetonitrile, 0.1% formic acid
Outline: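 Standards, all pure, were combined into mixtures of ~100 molecules and run at 100 μL/min on a Zorbax Extend-C18 column (2.1 × 50 mm, 1.8 μm) with water and acetonitrile, each containing 0.1% formic acid. A coupled quadrupole time-of-flight mass spectrometer operated in positive and negative ionization mode. Retention time values come from computationally picked adduct peaks, each inspected manually.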

Row | SMILES | RP-LC retention time [s]
1 | CCn1c(=O)n(Cc2cccnc2)c(=O)c2cnc(-c3ccc(OC)cc3)nc21 | 762
2 | Fc1ccccc1N1CCN(Cc2nc(-c3ccc(N4CCSCC4)nc3)no2)CC1 | 1030
3 | Cc1onc(-c2ccccc2)c1C(=O)NC1C(=O)N2C1SC(C)(C)C2C(=O)O (stereo not given) | 818
4 | Cc1oc(-c2cccc(Cl)c2)nc1Cn1nnc(-c2nc(-c3ccc(F)cc3)no2)c1C | 869
5 | COc1ccccc1OCC(=O)N1CCN(c2cc(C(C)C)n3cnnc3n2)CC1 | 626
6 | Cc1noc(-c2cccn2Cc2c(F)cccc2Cl)n1 | 1130
7 | Fc1ccc(-c2nc(-c3ccc(-n4cccn4)nc3)no2)cc1 | 1230
8 | O=C1CCCc2nc(N3CCN(c4ccccn4)CC3)ncc21 | 566
9 | Cc1[nH]c(C(=O)N2CCC(CC(=O)NC3CCCCC3)CC2)c(C)c1C(=O)OC(C)C | 825
10 | CC(C)NC(=O)C1CCN(c2nc3ccc(-c4ccccc4F)nc3s2)CC1 | 915
11 | Cc1c(-c2ccnc(N3CCN(C)CC3)n2)cnc2nc(-c3ccncc3)nn12 | 552
12 | CCc1nc(-c2cc(S(=O)(=O)NCC(=O)NC3CC3)c(C)s2)no1 | 740
13 | COc1ccc(S(=O)(=O)N2CC=C(c3cn(C(C)C)c4ncccc34)CC2)cc1 | 1070
14 | CC(C)CCNC(=O)CN1C(=O)C2CCCCN2c2ccc(C(=O)N(C)C)cc21 (stereo not given) | 745
15 | COc1ccc(OC)c(Nc2c(-c3ccc(SC)cc3)nc3cnccn23)c1 | 923
16 | O=C(NCCOc1ccc2nnc(-c3cccc(F)c3)n2n1)c1ccc(=O)[nH]n1 | 598
17 | Cc1ccc(-c2cc3c(=O)n(Cc4noc(CN5CCCCC5C)n4)ccn3n2)cc1C (stereo not given) | 730
18 | [O-][n+]1nc2ccccc2c2ccccc21 | 812
19 | O=S(=O)(Nc1cccc(-c2cn3ccccc3n2)c1)c1ccccc1 | 626
20 | O=C(Cn1cccc1-c1nnc(-c2ccccc2)o1)N1CCN(c2ccccc2)CC1 | 984
21 | CC1=C(c2ccc(C)c(C)c2)S(=O)(=O)N=C1N1CCCN(C(=O)NC(C)(C)C)CC1 | 888
22 | O=C(c1cc(S(=O)(=O)N2CCCC(C(=O)N3CCc4ccccc43)C2)c[nH]1)N1CCCCCC1 (stereo not given) | 949
23 | Cc1nc(-c2cn(C(C)C)c3ncccc23)sc1C(=O)NCCC(C)C | 1070
24 | COc1ccc(OC)c(NC(=O)Cn2c(C)cc(-c3nnc(C4CC4)o3)c2C)c1 | 830
25 | O=C(c1ccco1)N1CC(Oc2cccc(-c3nc(-c4ccccc4)no3)c2)C1 | 1120
26 | COc1ccc(NC(=O)Cn2c(=O)n(-c3ccc(F)cc3)c(=O)c3c2cc(C)n3C)cc1OC | 739
27 | CCOc1ccc(-c2ccc(=O)n(Cc3nc(-c4ccc(C)cc4)no3)n2)cc1 | 1150
28 | Brc1ccc(CSc2nnc3ccc(-c4cccnc4)nn23)cc1 | 723
29 | CCN(CC)c1ccc(NC(=O)C2C(=O)NC3(C)CC2c2ccccc2O3)c(C)c1 (stereo not given) | 640

More lines, now with the values ahead:

Row | RP-LC retention time [s] | SMILES
30 | 706 | COc1ccc(C(=O)Nc2ccc3c(c2)Sc2ncccc2C(=O)N3C)c(OC)c1
31 | 868 | CCOC(=O)CCc1c(C)nn(-c2cc(N3CCCC3)ncn2)c1C
32 | 762 | Cc1ccc(CNC(=O)C2CCN(S(=O)(=O)c3cc(C(=O)N(C)C)cs3)CC2)cc1
33 | 1040 | O=S(=O)(c1cccc2nsnc12)N1CCc2nc(-c3ccc(F)cc3)ncc2C1
34 | 1200 | COc1ccc(-n2c(=O)c(C(=O)Nc3ccc4c(c3)OCO4)c(O)c3cccnc32)cc1
35 | 655 | COc1ccc2[nH]c(=O)c(CCC(=O)NCc3ccco3)cc2c1
36 | 781 | O=C(Cn1ccn2nc(-c3ccccc3)c(CO)c2c1=O)Nc1ccccc1
37 | 698 | Cc1oc(-c2ccc(C(=O)NCCN3CCCC3)cc2)nc1COc1ccccc1
38 | 666 | Cn1nc(C(=O)N2CCCC(C(=O)NC3CC3)C2)c2c1CCN(C(=O)Cc1cccc(F)c1)C2 (stereo not given)
39 | 894 | CCCS(=O)(=O)N1CCC(c2nc(CCOc3ccc(F)cc3)no2)C1 (stereo not given)
40 | 812 | CCCn1cc(CCNC(=O)c2cccc(Cl)c2)c2cccnc21
41 | 688 | CCOC(=O)c1c(C)oc2ncnc(NCCN(C)Cc3ccccc3)c12
42 | 654 | CCOc1ccc(C2=NC3(CCN(C(C)C)CC3)NC(c3cc(Br)ccc3O)C2)cc1 (stereo not given)
43 | 796 | O=C(Nc1ccc(SCC(=O)N2CCN(c3ccccc3)CC2)nn1)c1ccccc1
44 | 1060 | CCn1nccc1C(=O)NC1CCN(c2nc3c(s2)c(C)nn3-c2ccc(F)cc2)CC1
45 | 1010 | CCCOc1nc2ccccc2nc1N1CCCC(C(=O)NC2CC2)C1 (stereo not given)
46 | 799 | COC(=O)c1cc(OCC(=O)Nc2ccccc2F)c2ccccc2n1
47 | 808 | O=C(Cn1nc2n(c(=O)c1=O)CCN2c1ccccc1)Nc1ccc(OC(F)(F)F)cc1

Row | RP-LC retention time [s] | SMILES
48 | 688 | COC(=O)CCN1C(=O)c2ccccc2C1=O
49 | 596 | CCCC(=O)N1CCC(C(=O)NCCc2cscn2)CC1
50 | 696 | COc1cccc(NC(=O)NCCc2nc3cccnc3n2C2CCCC2)c1
51 | 734 | O=C(Cn1c(=O)n(CCc2ccccc2)c(=O)c2ncccc21)Nc1ccc2c(c1)OCO2
52 | 626 | CCn1cc(CCN2CCC(C(=O)Nc3ccc4c(c3)OCCO4)CC2)c2cccnc21
53 | 588 | CCOC(=O)Cc1ccc(NC(=O)N2CCc3nc[nH]c3C2)cc1
54 | 808 | CCOC(=O)c1c(S(=O)(=O)N2CCC(C(=O)NCc3ccc(F)cc3)CC2)c(C)n(C)c1C
55 | 711 | CC(=O)Nc1ccc(C2(C(=O)N3CCCCC3)CCC2)cc1
56 | 644 | CC(NC(=O)C1CCN(CCc2cn(C)c3ncccc23)CC1)c1ccccc1 (stereo not given)
57 | 824 | Cc1cccc(NC(=O)Cc2c(C)n(C)c3nc(-c4ccccc4)nn3c2=O)c1
58 | 899 | CCC(C)NC(=O)c1cnn(-c2ccc(-c3nc(C4CC4)no3)cn2)c1C (stereo not given)
59 | 1010 | CCN(C(=O)Cn1nc(C(=O)N2CCCCC2)c2ccccc21)c1cccc(C)c1
60 | 878 | COc1ccc2[nH]cc(CCNC(=O)c3cc(Cl)ccc3Cl)c2c1
61 | 569 | O=C(Cn1ccc2ccn(Cc3cccnc3)c2c1=O)N1CCOCC1
62 | 562 | COCCn1c(CCCC(=O)N2CCN(c3ccccn3)CC2)nc2cccnc21
63 | 860 | CCCN1C(=O)c2c(C(=O)NCCc3ccccc3)ncn2CC1(C)C(=O)NC1CCCC1 (stereo not given)
64 | 1070 | CCc1cccc(NS(=O)(=O)c2cn(CC(C)C)c3ncccc23)c1
65 | 924 | CC(=O)Nc1ccc(-c2noc(C3CCN(C(=O)CCC4CCCC4)CC3)n2)cc1
